Data from patent publication US9815836B2, “Macrocyclic compounds as IRAK1/4 inhibitors and uses thereof” (Merck Patent GmbH, priority 2015, dated 2017).
Where two headings read alike, the source gives them in different places.

Legend:
[1] = biological target: IRAK1 (Homo sapiens (Human), UniProt P51617); assay: IRAK1 enzymatic assay (ADP-Glo luminescence); assay type: biochemical
Description: In this assay, IRAK1 hydrolyses ATP and autophosphorylates. Measurement of IRAK-1 inhibition is performed in 384-well format based on luminescence assay (ADP-Glo™ Kinase Assay from Promega). Purified human recombinant IRAK1 ([…]) and serial diluted compounds in DMSO (range of concentration from 10 μM to 0.5 nM) or controls (1% DMSO) are incubated for 15 minutes at RT in assay buffer containing 50 mM Hepes pH 7.0, Fatty acid-free BSA 0.1%, Dithiothreitol (DTT) 2 mM, MgCl2 10 mM, EGTA 0.5 mM, Triton X-100 0.01%. The kinase reaction is then initiated by the addition of ATP at a concentration of 1μM. After 2 hours of incubation at RT, the reaction is stopped and the unconsumed ATP depleted by the addition of ADP-Glo™ Reagent according to supplier instructions. After 40 minutes of incubation at RT, the Kinase Detection Reagent is then added to the assay plate according to supplier instructions. After 20 minutes of incubation at RT, the luminescence signal is measured with a luminometer (PerkinElmer Envision or equivalent reader).

[2] = biological target: IRAK4 (Homo sapiens (Human), UniProt Q9NWZ3); assay: IRAK4 enzymatic assay (ADP-Glo luminescence); assay type: biochemical; details: human purified recombinant His-TEV-IRAK4 (1-460), ATP 2 μM, STK1-biotin peptide 300 nM
Sequence of IRAK4 (Q9NWZ3 whole entry): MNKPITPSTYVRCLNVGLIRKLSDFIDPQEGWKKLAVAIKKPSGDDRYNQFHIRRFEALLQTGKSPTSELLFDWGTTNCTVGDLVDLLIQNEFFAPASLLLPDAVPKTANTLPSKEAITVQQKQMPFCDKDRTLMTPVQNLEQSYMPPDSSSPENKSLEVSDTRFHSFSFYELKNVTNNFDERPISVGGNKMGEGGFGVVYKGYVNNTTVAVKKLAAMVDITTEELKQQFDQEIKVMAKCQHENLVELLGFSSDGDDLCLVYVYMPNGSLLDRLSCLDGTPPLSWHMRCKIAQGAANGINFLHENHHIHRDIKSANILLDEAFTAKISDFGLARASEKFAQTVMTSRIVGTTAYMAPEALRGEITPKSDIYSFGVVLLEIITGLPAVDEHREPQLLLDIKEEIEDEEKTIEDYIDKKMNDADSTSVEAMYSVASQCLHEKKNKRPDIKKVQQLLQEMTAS
Description: IRAK4 is a human purified recombinant enzyme (His-TEV-IRAK4 (1-460)).
In this assay, IRAK4 hydrolyses ATP, autophosphorylates and phosphorylates a Serine/Threonine generic peptidic substrate (STK: 61ST1BLC from CisBio International). Measurement of IRAK-4 inhibition is performed in 384-well format based on a luminescence assay (ADP-Glo™ Kinase Assay from Promega). Purified human recombinant IRAK4 (0.3 μg/ml) and serial diluted compounds in DMSO (range of concentration from 10 μM to 0.5 nM) or controls (1% DMSO) are incubated for 15 minutes at RT in assay buffer containing 50 mM Hepes pH 7.0, Fatty acid-free BSA 0.1%, Dithiothreitol (DTT) 2 mM, MgCl2 10 mM, EGTA 0.5 mM, Triton X-100 0.01%, MnCl2 5 mM. The kinase reaction is then initiated by the addition of ATP (2 μM) and the peptidic substrate STK1-biotin peptide (300 nM). After 2 hours of incubation at RT, the reaction is stopped and the unconsumed ATP depleted by the addition of ADP-Glo™ Reagent according to supplier instructions. After 40 minutes of incubation at RT, the Kinase Detection Reagent is then added to the assay plate according to supplier instructions. After 20 minutes of incubation at RT, the luminescence signal is measured with a plate-reading luminometer (PerkinElmer Envision or equivalent reader).

[3] = human purified recombinant His-TEV-IRAK1 (194-712), ATP 1 μM, read-out: IRAK1 IC50

Sequence of IRAK1 (P51617 194-712): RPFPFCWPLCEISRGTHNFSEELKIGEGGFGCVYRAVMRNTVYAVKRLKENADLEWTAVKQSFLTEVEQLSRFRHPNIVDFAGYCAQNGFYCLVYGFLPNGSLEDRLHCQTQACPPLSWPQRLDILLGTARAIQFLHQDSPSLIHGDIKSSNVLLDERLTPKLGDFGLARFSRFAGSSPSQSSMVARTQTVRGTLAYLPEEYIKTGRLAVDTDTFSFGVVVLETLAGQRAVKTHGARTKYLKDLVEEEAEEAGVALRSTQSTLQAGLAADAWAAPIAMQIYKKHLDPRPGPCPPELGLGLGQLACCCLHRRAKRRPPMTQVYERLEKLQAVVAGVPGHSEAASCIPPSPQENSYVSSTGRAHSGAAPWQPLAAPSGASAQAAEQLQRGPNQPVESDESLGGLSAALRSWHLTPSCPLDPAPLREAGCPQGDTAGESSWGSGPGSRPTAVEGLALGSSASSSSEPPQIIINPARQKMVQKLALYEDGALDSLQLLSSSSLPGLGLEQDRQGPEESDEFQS

Which results are given for O=C1Nc2cn(C3CCOCC3)nc2C(=O)NCCSCCCn2cc(cn2)-c2cccc1n2 [Compound 13, 6-(oxan-4-yl)-9-thia-4,5,12,15,16,19,25-heptaazatetracyclo[19.3.1.1^2,^5.0^1^4,^1^8]hexacosa-1(24),2(26),3,14,17,21(25),22-heptaene-13,20-dione]?
IC50 [1]: 100 to 1000 nM; IC50 [2]: < 100 nM

O=C1Nc2cn(C3CCNCC3)nc2C(=O)NCCCCCCn2cc(cn2)-c2cccc1n2 [Compound 16, 16-(piperidin-4-yl)-4,5,12,15,16,19,25-heptaazatetracyclo[19.3.1.1^2,^5.0^1^4,^1^8]hexacosa-1 (24),2(26),3,14,17,21(25),22-heptaene-13,20-dione] was tested. Which IC50 [1] did it give?
Its IC50 is 100 to 1000 nM.

And the IC50 [2]?
Its IC50 is under 100 nM.

Which IC50 [1] does the source give for Cn1cc2c(n1)C(=O)NCCC/C=C\Cn1cc(cn1)-c1cccc(n1)C(=O)N2 [Compound 37, (7Z)-16-methyl-4,5,12,15,16,19,25-heptaazatetracyclo[19.3.1.1^2,^5.0^1^4,^1^8]hexacosa-1(24),2(26),3,7,14,17,21(25),22-octaene-13,20-dione] here?
The IC50 was 100 to 1000 nM.

And the IC50 [2]?
The IC50 was under 100 nM.

CN1CCNC(=O)c2nn(C)cc2NC(=O)c2cccc(n2)-c2cnn(c2)CC1 [Compound 10, 8,15-dimethyl-4,5,8,11,14,15,18,24-octaazatetracyclo[18.3.1.1^2,^5.0^13,^1^7]pentacosa-1(23),2(25),3,13,16,20(24),21-heptaene-12,19-dione] was tested. Which IC50 [1] did it give?
Its IC50 is 1000 to 5000 nM.

And the IC50 [2]?
The IC50 was 100 to 1000 nM.

For Cn1cc2c(n1)C(=O)NCC1CN(CCO1)CCn1cc(cn1)-c1cccc(n1)C(=O)N2 (stereo not drawn) [Compound 7, 18-methyl-11-oxa-4,5,8,14,17,18,21,27-octaazapentacyclo[21.3.1.1^2,^5.1^8,^12.0^1^6,^2^0]nonacosa-1 (26),2(29),3,16,19,23(27),24-heptaene-15,22-dione], which IC50 [1] is on record?
The IC50 was 1000 to 5000 nM.

And the IC50 [2]?
Its IC50 is under 100 nM.

Which results are given for Cn1cc2c(n1)C(=O)NC/C=C\CCCn1cc(cn1)-c1cccc(n1)C(=O)N2 [Compound 30, (9Z)-16-methyl-4,5,12,15,16,19,25-heptaazatetracyclo[19.3.1.1^2,^5.0^1^4,^1^8]hexacosa-1(24),2(26),3,9,14,17,21(25),22-octaene-13,20-dione]?
IC50 [1]: 100 to 1000 nM; IC50 [2]: < 100 nM

With Cn1cc2c(n1)C(=O)NCC/C=C\CCn1cc(cn1)-c1cccc(n1)C(=O)N2 [Compound 27, (8Z)-16-methyl-4,5,12,15,16,19,25-heptaazatetracyclo[19.3.1.1^2,^5.0^1^4,^1^8]hexacosa-1(24),2(26),3,8,14,17,21(25),22-octaene-13,20-dione] as the compound, how does the IC50 [1] read?
Its IC50 is 100 to 1000 nM.

What about the IC50 [2] of the same compound?
The IC50 was under 100 nM.

What does the source list for CN1CCCNC(=O)c2nn(C)cc2NC(=O)c2cccc(n2)-c2cnn(c2)CC1 [Compound 11, 8,16-dimethyl-4,5,8,12,15,16,19,25-octaazatetracyclo[19.3.1.1^2,^5.0^1^4,^1^8]hexacosa-1(24),2(26),3,14,17,21(25),22-heptaene-13,20-dione]?
IC50 [1]: 1000 to 5000 nM; IC50 [2]: < 100 nM

Which results are given for CS(=O)(=O)N1CCC(n2cc3c(n2)C(=O)NCCCCCCn2cc(cn2)-c2cccc(n2)C(=O)N3)CC1 [Compound 17, 6-(1-methanesulfonylpiperidin-4-yl)-4,5,12,15,16,19,25-heptaazatetracyclo[19.3.1.1^2,^5.0^1^4,^1^8]hexacosa-1(24),2(26),3,14,17,21(25),22-heptaene-13,20-dione]?
IC50 [1]: 100 to 1000 nM; IC50 [2]: < 100 nM

How did the IC50 [1] turn out when Cn1cc2c(n1)C(=O)NC/C=C/CCCn1cc(cn1)-c1cccc(n1)C(=O)N2 [Compound 29, (9E)-16-methyl-4,5,12,15,16,19,25-heptaazatetracyclo[19.3.1.1^2,^5.0^1^4,^1^8]hexacosa-1(24),2(26),3,9,14,17,21(25),22-octaene-13,20-dione] was run?
The IC50 was 100 to 1000 nM.

What about the IC50 [2] of the same compound?
Its IC50 is under 100 nM.

Which results are given for O=C1Nc2cn(C3CCOCC3)nc2C(=O)NCC[S+]([O-])CCCn2cc(cn2)-c2cccc1n2 (stereo not drawn) [Compound 14, 16-(oxan-4-yl)-9λ^4-thia-4,5,12,15,16,19,25-heptaazatetracyclo[19.3.1.1^2,^5.0^1^4,^1^8]hexacosa-1(24),2(26),3,14,17,21(25),22-heptaene-9,13,20-trione]?
IC50 [1]: 100 to 1000 nM; IC50 [2]: < 100 nM

Which IC50 [2] does the source give for “9,10-dihydroxy-17-methyl-4,5,13,16,17,20,26-heptaazatetracyclo[20.3.1.1^2,^5.0^1^5,^1^9]heptacosa-1(25),2(27),3,15,18,22(26),23-heptaene-14,21-dione [Compound 36]” here?
The IC50 was under 100 nM.

Which results are given for O=C1Nc2cn(C3CCN(C(=O)NC4CC4)CC3)nc2C(=O)NCCCCCCn2cc(cn2)-c2cccc1n2 [Compound 19, N-cyclopropyl-4-{13,20-dioxo-4,5,12,15,16,19,25-heptaazatetracyclo[19.3.1.1^2,^5.0^1^4,^1^8]hexacosa-1(24),2(26),3,14,17,21(25),22-heptaen-16-yl}piperidine-1-carboxamide]?
IC50 [1]: 100 to 1000 nM; IC50 [2]: < 100 nM

Which results are given for Cn1cc2c(n1)C(=O)NCCC(O)C(O)CCn1cc(cn1)-c1cccc(n1)C(=O)N2 (stereo not drawn) [Compound 33, 8,9-dihydroxy-16-methyl-4,5,12,15,16,19,25-heptaazatetracyclo[19.3.1.1^2,^5.0^1^4,^1^8]hexacosa-1(24),2(26),3,14,17,21(25),22-heptaene-13,20-dione]?
IC50 [1]: 100 to 1000 nM; IC50 [2]: < 100 nM

Cn1cc2c(n1)C(=O)NCCC/C=C/Cn1cc(cn1)-c1cccc(n1)C(=O)N2 [Compound 25, (7E)-16-methyl-4,5,12,15,16,19,25-heptaazatetracyclo[19.3.1.1^2,^5.0^1^4,^1^8]hexacosa-1(24),2(26),3,7,14,17,21(25),22-octaene-13,20-dione] was tested. Which IC50 [1, 3] did it give?
The IC50 was under 100 nM.

What about the IC50 [2] of the same compound?
The IC50 was under 100 nM.

For Cn1cc2c(n1)C(=O)NCC1CN(CCO1)C(=O)OCCn1cc(cn1)-c1cccc(n1)C(=O)N2 (stereo not drawn) [Compound 8, 20-methyl-8,13-dioxa-4,5,10,16,19,20,23,29-octaazapentacyclo[23.3.1.1^2,^5.1^1^0,^1^4.0^1^8,^22]hentriaconta-1(28),2(31),3,18,21,25(29),26-heptaene-9,17,24-trione], which IC50 [1, 3] is on record?
Its IC50 is over 5000 nM.

What about the IC50 [2] of the same compound?
Its IC50 is 100 to 1000 nM.

Which IC50 [1, 3] does the source give for O=C1Nc2cn(C3CCOCC3)nc2C(=O)NCCCCCn2cc(cn2)-c2cccc1c2 [Compound 6, 15-(oxan-4-yl)-4,5,11,14,15,18-hexaazatetracyclo[18.3.1.1^2,^5.0^13,^1^7]pentacosa-1(23),2(25),3,13,16,20(24),21-heptaene-12,19-dione] here?
The IC50 was over 5000 nM.

What about the IC50 [2] of the same compound?
Its IC50 is over 5000 nM.

Which results are given for O=C1Nc2cn(C3CCOCC3)nc2C(=O)NCCCCCCn2cc(cn2)-c2cccc1c2 [Compound 24, 16-(oxan-4-yl)-4,5,12,15,16,19-hexaazatetracyclo[19.3.1.1^2,^5.0^1^4,^1^8]hexacosa-1(24),2(26),3,14,17,21 (25),22-heptaene-13,20-dione]?
IC50 [1]: 100 to 1000 nM; IC50 [2]: < 100 nM

Cn1cc2c(n1)C(=O)NCCCC#CCn1cc(cn1)-c1cccc(n1)C(=O)N2 [Compound 38, 16-methyl-4,5,12,15,16,19,25-heptaazatetracyclo[19.3.1.1^2,^5.0^1^4,^1^8]hexacosa-1(24),2(26),3,14,17,21 (25),22-heptaen-7-yne-13,20-dione] was tested. Which IC50 [1, 3] did it give?
The IC50 was under 100 nM.

And the IC50 [2]?
Its IC50 is under 100 nM.

For Cn1cc2c(n1)C(=O)NCCCCCCn1cc(cn1)-c1cccc(c1)C(=O)N2 [Compound 1, 16-methyl-4,5,12,15,16,19-hexaazatetracyclo[19.3.1.1^2,^5.0^1^4,^1^8]hexacosa-1(24),2(26),3,14,17,21(25),22-heptaene-13,20-dione], which IC50 [1] is on record?
Its IC50 is 100 to 1000 nM.

What about the IC50 [2] of the same compound?
The IC50 was under 100 nM.

For “15-methyl-4,5,11,14,15,18,24-heptaazatetracyclo[18.3.1.1^2,^5.0^13,^1^7]pentacosa-1(23),2(25),3,13,16,20(24),21-heptaene-12,19-dione [Compound 2]”, which IC50 [2] is on record?
Its IC50 is 100 to 1000 nM.

For “(9E)-17-methyl-4,5,13,16, 17,20,26-heptaazatetracyclo[20.3.1.1^2,^5.0^1^5,^1^9]heptacosa-1(25),2(27),3,9,15,18,22(26),23-octaene-14,21-dione [Compound 34]”, which IC50 [2] is on record?
Its IC50 is under 100 nM.

How did the IC50 [2] turn out when “17-methyl-4,5,13,16,17,20,26-heptaazatetracyclo[20.3.1.1^2,^5.0^1^5,^1^9]heptacosa-1(25),2(27),3,15,18,22(26),23-heptaene-14,21-dione [Compound 35]” was run?
The IC50 was under 100 nM.
